According to US11639355B2, “Substituted pyrrolo[3,4-d]imidazoles as MDM2-p53 inhibitors” (LUOXIN PHARMACEUTICAL (SHANGHAI) CO., LTD., priority 2018, dated 2023):
Read-outs that look alike come from different tables or passages of the source.

What was measured:
[1] = Pharmacokinetic study in mice, tail vein injection and oral cassette dosing; format: in vivo; settings: mouse, plasma, female Balb/c mice
Protocol: The purposes of the present disclosure are to study the pharmacokinetic behaviors of the compounds of the present disclosure in mice and to evaluate the pharmacokinetic characteristics thereof.
Healthy juvenile female Balb/c mice by weight of 20-30 g, 6 in total.
There were 6 female Balb/c mice, with after fasting overnight 3 mice administered a dose of 0.5 mg/kg via tail vein injection; the other 3 mice administered orally a dose of 2 mg/kg.
Blood was collected before administration and 0.08, 0.25, 0.5, 1, 2, 4, 8, and 24 hours after administration, placed in a heparinized anticoagulation tube, and centrifuged at 7000 rpm (5204 g) at 4° C., and the plasma was separated and stored at −80° C. 4 hours after administration, the mice were fed.
The LC/MS/MS method was used to determine the content of the compounds to be tested in mouse plasma after iv and oral administration. Plasma samples were analyzed after pretreatment of protein precipitation.

[2] = system: P-glycoprotein (MDR1), human; assay: Two-way permeability evaluation in MDR1-MDCK cells; format: in vitro ADME; settings: dog, MDR1-MDCK
Excerpt: (§1) Experiment purpose: To determine the permeability of the test compounds in MDR1-MDCK cells
(§2) Experiment operation: MDR1-MDCK cells that permanently express human P-glycoprotein were inoculated on a 96-well Insert cell plate, and cultured for 4-7 days to form confluent monolayer cells. […] In addition, the cells were lysed with the cold acetonitrile solution containing the internal standard to measure the accumulation amount of intracellular compounds. The LC/MS/MS method was used to analyze the concentrations of the compounds to be tested in all samples (including an initial dosing solution, supernatant of the donor wells, receiver solution, and cell lysate). The concentrations of the test compounds were expressed by the ratio of the peak area thereof to the peak area of the internal standard to detect the permeability of the compounds from directions of A→B and B→A.

P-glycoprotein (MDR1) = assay: Two-way permeability evaluation in MDR1-MDCK cells; format: in vitro ADME; settings: dog, MDCK-MDR1, pH 7.4, MDR1-MDCK
Excerpt: as §1, §2

[3] = Two-way permeability evaluation in Caco-2 cells; format: in vitro ADME; settings: human; for recovery at 2.5 h, 2 μM: Caco-2, pH 7.4, Caco-2
Protocol: Experiment purpose: To determine the permeability of the test compounds in Caco-2 cells
Experiment operation: Human colon cancer Caco-2 cells were inoculated on a 96-well Insert cell plate at a density of 1×10^5 cells/cm^2, and cultured for 4-5 days to form confluent monolayer cells. The test compounds was diluted with an HBSS buffer (pH 7.4) to a concentration of 2 μM, added to the top or basolateral side of the cells, and incubated at 37° C., 5% CO2 and saturated humidity for 2.5 hours, and then the sample solutions in the donor wells and receiver wells were taken and immediately mixed with a cold acetonitrile solution containing an internal standard. In addition, the cells were lysed with the cold acetonitrile solution containing the internal standard to measure the accumulation amount of intracellular compounds. The LC/MS/MS method was used to analyze the concentrations of the compounds to be tested in all samples (including an initial dosing solution, supernatant of the donor wells, receiver solution, and cell lysate). The concentrations of the test compounds were expressed by the ratio of the peak area thereof to the peak area of the internal standard to detect the permeability of the compounds from directions of A→B and B→A.

MV4-11 tumor cells = assay: Efficacy in mice with subcutaneously transplanted MV4-11 acute myeloid leukemia tumor; format: in vivo; settings: 6 mg/kg oral once a day
Protocol: 0.2 mL (10×10^6 cells, containing 50% Matrigel) of MV4-11 tumor cells were inoculated subcutaneously on the right back of each mouse to form a transplanted tumor; when the volume reached 100-200 mm^3, the animals were randomly grouped according to the tumor volume, with 8 in the negative control group, 8 in the positive control group, and 8 in the experimental group. […] The length (A) and width (B) of the tumor were measured with a vernier caliper twice a week, thereby calculating the tumor volume V=A×B^2/2. The calculation of relative tumor volume (RTV) follows: RTV=Vt/V0, where Vt is the tumor volume at the end of the administration, and V0 is the tumor volume measured before division into different cages for administration. The pharmacodynamic evaluation index of the anti-tumor activity is the relative tumor proliferation ratio T/C (%), and the calculation formula is: T/C (%)=TRTV/CRTV×100%. Where TRTV is the RTV of the treatment group; CRTV is the RTV of the negative control group. Efficacy evaluation criteria: T/C %>60% is invalid; T/C %≤60% and P<0.05 upon statistical treatment is valid.
CVt is the tumor volume of the control group at the end of the administration; CV0 is the tumor volume of the control group before division into different cages for administration; TVt is the tumor volume of the dosing group at the end of the administration; TV0 is the tumor volume of the dosing group before division into different cages for administration. The difference in tumor volumes between the dosing group and the control group was subjected to t-test. At the same time, the nude mice of each group were weighed twice a week to preliminarily evaluate the side effects of the drugs.

[4] = reported data; cited from earlier work
[5] = reported data; cited from earlier work; remark: listed apart in the source
[6] = read-out: Average recovery rate A→B
[7] = read-out: Average recovery rate B→A
[8] = Caco-2, 2 μM, pH 7.4, 2.5 hours

half-life ([1]; 0.5 mg/kg, intravenous injection 0.5 mpk, read-out: Half-life T1/2 (converted)): 42.6 min
bioavailability ([1]; 2 mg/kg, iv 0.5 mpk, oral 2 mpk, read-out: Oral bioavailability F): 39.6%
AUC(0-t) ([1]; 2 mg/kg, oral administration 2 mpk, read-out: Oral exposure AUC0-t): 1.32 µM·h
efflux ratio at 2.5 h, 2 μM ([2]; pH 7.4): 20.3
Papp A→B at 2.5 h, 2 μM ([2]; 2 μM, pH 7.4, 2.5 hours): 0.91 ×10⁻⁶ cm/s
Papp B→A at 2.5 h, 2 μM ([2]; 2 μM, pH 7.4, 2.5 hours): 18.4 ×10⁻⁶ cm/s
recovery at 2.5 h, 2 μM (P-glycoprotein (MDR1); [6]): 38%
recovery at 2.5 h, 2 μM (P-glycoprotein (MDR1); [7]): 50%
efflux ratio at 2.5 h, 2 μM ([3]; Caco-2, pH 7.4): 198
recovery at 2.5 h, 2 μM [3, 6]: 94.3%
recovery at 2.5 h, 2 μM [3, 7]: 88.3%
Papp A→B at 2.5 h, 2 μM [3, 8]: 0.17 ×10⁻⁶ cm/s
Papp B→A at 2.5 h, 2 μM [3, 8]: 34.3 ×10⁻⁶ cm/s
Structure (SMILES): COc1ncc(-c2nc3c(n2C(C)C)[C@H](c2ccc(Cl)cc2)N(c2cc(Cl)cn(C)c2=O)C3=O)c(OC)n1 [NVP-HDM201]
RTV (21 days) (MV4-11 tumor cells): 4.68 ± 0.69
T/C (MV4-11 tumor cells; 21 days): 73.58%
TGI (MV4-11 tumor cells; 21 days): 36.91%
Tumor volume (Day 0) (MV4-11 tumor cells; Day 0, before administration): 153 ± 20 mm^3
Tumor volume (Day 21) (MV4-11 tumor cells; Day 21): 695 ± 115 mm^3
stability in mouse liver microsomes [4]: poor
drug plasma exposure [5]: low
half-life in mice [5]: short
